One assay deals with T1, rat CB2 receptor (rCB2) (Rattus norvegicus, UniProt Q9QZN9).
T1 sequence (Q9QZN9 1-360): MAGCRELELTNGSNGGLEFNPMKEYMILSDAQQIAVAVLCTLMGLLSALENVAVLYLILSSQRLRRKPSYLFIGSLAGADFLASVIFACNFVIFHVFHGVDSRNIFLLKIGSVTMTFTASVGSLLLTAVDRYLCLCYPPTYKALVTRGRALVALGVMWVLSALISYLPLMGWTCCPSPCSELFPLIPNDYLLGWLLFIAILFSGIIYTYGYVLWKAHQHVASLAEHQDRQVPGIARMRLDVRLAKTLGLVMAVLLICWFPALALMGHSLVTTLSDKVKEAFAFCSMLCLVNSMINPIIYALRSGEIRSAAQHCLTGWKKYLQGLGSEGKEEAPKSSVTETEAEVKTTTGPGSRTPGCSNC
Kind of assay: cell-based. In kind it is cell-based. As to conditions: for +/− RCB2: agonist or inverse agonist at rCB2. An outline of the steps: (§1)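 First, cells in IBMX-containing HEPES-buffered HBSS are raised to elevated cAMP with 2-8 μM NKH-477 for 30 min. Data are normalised to the forskolin and forskolin + 1 μM CP55,940 controls.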

Assay [1] deals with human CB1 receptor (hCB1) (Homo sapiens, UniProt P21554). Kind of assay: cell-based. In kind it is cell-based. The conditions noted are these: for +/− HCB1: agonist or inverse agonist at hCB1. A digest of the protocol:
as §1

The mark [2] stands for this setting: groups >100 nM-10 μM and >10 μM, cAMP, CHO-K1 rCB2, read-out: EC50 RCB2.
[3] abbreviates: groups >100 nM-10 μM and >10 μM, cAMP, CHO-K1 hCB1, read-out: EC50 HCB1.

The structures appear in SMILES notation. Where two headings read alike, the source gives them in different places. Where only a bound is given, the exact number is not on record here.

Sequence of human CB1 receptor (hCB1) (P21554 whole entry): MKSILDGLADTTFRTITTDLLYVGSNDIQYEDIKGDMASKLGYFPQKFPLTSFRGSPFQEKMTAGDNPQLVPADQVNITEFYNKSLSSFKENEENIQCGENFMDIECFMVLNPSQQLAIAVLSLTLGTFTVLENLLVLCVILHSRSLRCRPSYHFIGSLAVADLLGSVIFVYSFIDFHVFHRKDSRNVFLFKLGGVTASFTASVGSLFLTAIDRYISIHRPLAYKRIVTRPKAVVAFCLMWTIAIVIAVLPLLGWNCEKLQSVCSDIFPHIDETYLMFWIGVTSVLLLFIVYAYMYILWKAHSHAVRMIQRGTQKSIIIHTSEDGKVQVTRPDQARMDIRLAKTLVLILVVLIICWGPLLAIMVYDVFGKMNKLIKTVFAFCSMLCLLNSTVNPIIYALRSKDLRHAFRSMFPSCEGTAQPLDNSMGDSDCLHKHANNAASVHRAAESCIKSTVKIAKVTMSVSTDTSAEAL

By EC50 is commonly meant the concentration that produces a half-maximal response. For the compound `CNC(=O)[C@@H](NC(=O)c1nc(-c2cscc2C)n2c1CNCC2)C(C)(C)C` [Compound 21, (S)-N-(3,3-dimethyl-1-(methylamino)-1-oxobutan-2-yl)-3-(4-methylthiophen-3-yl)-5,6,7,8-tetrahydroimidazo[1,5-a]pyrazine-1-carboxamide], the “+/− RCB2” value on rat CB2 receptor (rCB2) is given as “+”. The compound further yielded an EC50 in assay [1] of more than 10000 nM.
For `CNC(=O)[C@@H](NC(=O)c1nc(-c2cccc(C)c2)n2c1CNCC2)C(C)(C)C` [Compound 8, (S)-N-(3,3-dimethyl-1-(methylamino)-1-oxobutan-2-yl)-3-m-tolyl-5,6,7,8-tetrahydroimidazo[1,5-a]pyrazine-1-carboxamide] the same measures were “−” and more than 10000 nM.
For `CNC(=O)[C@@H](NC(=O)c1nc(-c2cc(F)c(F)c(F)c2)n2c1CN(C)CCC2)C(C)(C)C` [Compound 375, (S)-N-(3,3-dimethyl-1-(methylamino)-1-oxobutan-2-yl)-8-methyl-3-(3,4,5-trifluorophenyl)-6,7,8,9-tetrahydro-5H-imidazo[1,5-a][1,4]diazepine-1-carboxamide] the same measures were “+” and more than 10000 nM.
On to `CNC(=O)[C@@H](NC(=O)c1nc(/C=C/C2CC2)n2c1CN(C)CCC2)C(C)(C)C` [Compound 436, (S,E)-3-(2-cyclopropylvinyl)-N-(3,3-dimethyl-1-(methylamino)-1-oxobutan-2-yl)-8-methyl-6,7,8,9-tetrahydro-5H-imidazo[1,5-a][1,4]diazepine-1-carboxamide], for which the “+/− RCB2” value at rat CB2 receptor (rCB2) is recorded as “+”. For the same compound, the “+/− HCB1” value in assay [1] is given as “+”.
On to `CNC(=O)[C@@H](NC(=O)c1nc(-c2ccccc2)n2c1CN(CC(C)C)CCC2)C(C)(C)C` [Compound 320, (S)-N-(3,3-dimethyl-1-(methylamino)-1-oxobutan-2-yl)-8-isobutyl-3-phenyl-6,7,8,9-tetrahydro-5H-imidazo[1,5-a][1,4]diazepine-1-carboxamide], for which the “+/− RCB2” value at rat CB2 receptor (rCB2) is “−”. In addition, in assay [1], the EC50 was more than 10000 nM.
On to `O=C(c1nc(-c2ccccc2)n2c1CNCC2)N1CCOCC1` [Compound 25, morpholino(3-phenyl-5,6,7,8-tetrahydroimidazo[1,5-a]pyrazin-1-yl)methanone], for which the half-maximal effective concentration (EC50) (on rat CB2 receptor (rCB2) (setting [2]); in assay [1] (setting [3])) was more than 10000 nM in each case.
As to `CCS(=O)(=O)N1CCn2c(-c3ccccc3)nc(C(=O)Nc3ccccc3)c2C1` [Compound 114, 7-(ethylsulfonyl)-N,3-diphenyl-5,6,7,8-tetrahydroimidazo[1,5-a]pyrazine-1-carboxamide], the “+/− RCB2” value on rat CB2 receptor (rCB2) was “−”. Besides, the EC50 in assay [1] (setting [3]) was more than 10000 nM.
For `CC(C)CN1CCn2c(-c3ccccc3)nc(C(=O)NC3C4(C)CCC(C4)C3(C)C)c2C1` (stereo not drawn) [Compound 142, 7-isobutyl-3-phenyl-N-(1,3,3-trimethylbicyclo[2.2.1]heptan-2-yl)-5,6,7,8-tetrahydroimidazo[1,5-a]pyrazine-1-carboxamide], the “+/− RCB2” value on rat CB2 receptor (rCB2) is “−”. For the same compound, the EC50 in assay [1] was more than 10000 nM.
For `CNC(=O)[C@@H](NC(=O)c1nc(-c2ccccc2)n2c1CN(S(=O)(=O)c1ccc(F)cc1)CC2)C(C)(C)C` [Compound 93, (S)-N-(3,3-dimethyl-1-(methylamino)-1-oxobutan-2-yl)-7-(4-fluorophenylsulfonyl)-3-phenyl-5,6,7,8-tetrahydroimidazo[1,5-a]pyrazine-1-carboxamide], the “+/− RCB2” value at rat CB2 receptor (rCB2) is “−”. In assay [1], this compound came in with a half-maximal effective concentration (EC50) of more than 10000 nM.
For `CCN1CCn2c(-c3ccccc3)nc(C(=O)N[C@H](C(=O)NC)C(C)(C)C)c2C1` [Compound 149, (S)-N-(3,3-dimethyl-1-(methyalmino)-1-oxobutan-2-yl)-7-ethyl-3-phenyl-5,6,7,8-tetrahydroimidazo[1,5-a]pyrazine-1-carboxamide] the same measures were “−” and more than 10000 nM.
`O=C(NCC1CCOCC1)c1nc(-c2ccccc2)n2c1CN(C(=O)C1CC1)CC2` [Compound 134, 7-(cyclopropanecarbonyl)-3-phenyl-N-((tetrahydro-2H-pyran-4-yl)methyl)-5,6,7,8-tetrahydroimidazo[1,5-a]pyrazine-1-carboxamide]: the “+/− RCB2” value on rat CB2 receptor (rCB2) was “−”. The concentration giving a half-maximal response (EC50) in assay [1] (setting [3]) is more than 10000 nM.
On to `CC(C)CN1CCn2c(-c3ccccc3)nc(C(=O)N[C@@H](CO)C(C)(C)C)c2C1` [Compound 68, (R)-N-(1-hydroxy-3,3-dimethylbutan-2-yl)-7-isobutyl-3-phenyl-5,6,7,8-tetrahydroimidazo[1,5-a]pyrazine-1-carboxamide], for which the “+/− RCB2” value at rat CB2 receptor (rCB2) is “−”. In addition, the EC50 in assay [1] is more than 10000 nM.
Consider `CN1CCn2c(-c3ccccc3)nc(C(=O)N[C@H](c3nc(C(C)(C)C)no3)C(C)(C)C)c2C1` [Compound 283, (S)-N-(1-(3-tert-butyl-1,2,4-oxadiazol-5-yl)-2,2-dimethylpropyl)-7-methyl-3-phenyl-5,6,7,8-tetrahydroimidazo[1,5-a]pyrazine-1-carboxamide], for which the “+/− RCB2” value on rat CB2 receptor (rCB2) is on record as “−”. This compound also displayed an EC50 in assay [1] of more than 10000 nM.
Regarding `CNC(=O)[C@@H](NC(=O)c1nc(-c2c(F)cccc2F)n2c1CN(C)CCC2)C(C)(C)C` [Compound 601, (S)-3-(2,6-difluorophenyl)-N-(3,3-dimethyl-1-(methylamino)-1-oxobutan-2-yl)-8-methyl-6,7,8,9-tetrahydro-5H-imidazo[1,5-a][1,4]diazepine-1-carboxamide], on rat CB2 receptor (rCB2), the “+/− RCB2” value was “+”. The “+/− HCB1” value in assay [1] was “+”.
Regarding `CN1CCn2c(-c3ccccc3)nc(C(=O)N3CCOCC3)c2C1` [Compound 69, (7-methyl-3-phenyl-5,6,7,8-tetrahydroimidazo[1,5-a]pyrazin-1-yl)(morpholino)methanone], the “+/− RCB2” value at rat CB2 receptor (rCB2) is given as “−”. In addition, the EC50 in assay [1] (setting [3]) is more than 10000 nM.
For `CNC(=O)[C@@H](NC(=O)c1nc(-c2ccc(S(C)(=O)=O)cc2)n2c1CN(C)CCC2)C(C)(C)C` [Compound 379, (S)-N-(3,3-dimethyl-1-(methylamino)-1-oxobutan-2-yl)-8-methyl-3-(4-(methylsulfonyl)phenyl)-6,7,8,9-tetrahydro-5H-imidazo[1,5-a][1,4]diazepine-1-carboxamide], the EC50 (at rat CB2 receptor (rCB2); in assay [1]) was more than 10000 nM each time.
In the case of `CNC(=O)[C@@H](NC(=O)c1nc(-c2cccc(F)c2F)n2c1CN(C)CC2)C(C)(C)C` [Compound 261, (S)-3-(2,3-difluorophenyl)-N-(3,3-dimethyl-1-(methylamino)-1-oxobutan-2-yl)-7-methyl-5,6,7,8-tetrahydroimidazo[1,5-a]pyrazine-1-carboxamide], the “+/− RCB2” value at rat CB2 receptor (rCB2) is given as “+”. Also, the EC50 in assay [1] was more than 10000 nM.
As for `CNC(=O)[C@@H](NC(=O)c1nc(-c2ccccc2)n2c1CN(C(=O)c1ccccc1)CC2)C(C)(C)C` [Compound 127, (S)-7-benzoyl-N-(3,3-dimethyl-1-(methylamino)-1-oxobutan-2-yl)-3-phenyl-5,6,7,8-tetrahydroimidazo[1,5-a]pyrazine-1-carboxamide], the concentration giving a half-maximal response (EC50) (on rat CB2 receptor (rCB2); in assay [1]) was more than 10000 nM in each case.
For `C[C@@H](NC(=O)c1nc(-c2ccccc2)n2c1CN(C)CC2)C(C)(C)C` [Compound 50, (R)-N-(3,3-dimethylbutan-2-yl)-7-methyl-3-phenyl-5,6,7,8-tetrahydroimidazo[1,5-a]pyrazine-1-carboxamide], the EC50 (on rat CB2 receptor (rCB2) (setting [2]); in assay [1] (setting [3])) was more than 10000 nM throughout.
Regarding `CNC(=O)[C@@H](NC(=O)c1nc(-c2cc(C(F)(F)F)cc(C(F)(F)F)c2)n2c1CN(C)CCC2)C(C)(C)C` [Compound 599, (S)-3-(3,5-bis(trifluoromethyl)phenyl)-N-(3,3-dimethyl-1-(methylamino)-1-oxobutan-2-yl)-8-methyl-6,7,8,9-tetrahydro-5H-imidazo[1,5-a][1,4]diazepine-1-carboxamide], the EC50 (on rat CB2 receptor (rCB2); in assay [1]) was more than 10000 nM each time.
In the case of `CNC(=O)[C@@H](NC(=O)c1nc(C(=O)c2ccccc2)n2c1CN(C)CC2)C(C)(C)C` [Compound 289, (S)-3-benzoyl-N-(3,3-dimethyl-1-(methylamino)-1-oxobutan-2-yl)-7-methyl-5,6,7,8-tetrahydroimidazo[1,5-a]pyrazine-1-carboxamide], the “+/− RCB2” value on rat CB2 receptor (rCB2) is listed as “−”. The EC50 in assay [1] is more than 10000 nM.
Regarding `CNC(=O)[C@@H](NC(=O)c1nc(-c2cc(F)c(F)cc2F)n2c1CN(C)CCC2)C1CCCCC1` [Compound 541, (S)-N-(1-cyclohexyl-2-(methylamino)-2-oxoethyl)-8-methyl-3-(2,4,5-trifluorophenyl)-6,7,8,9-tetrahydro-5H-imidazo[1,5-a][1,4]diazepine-1-carboxamide], at rat CB2 receptor (rCB2), the “+/− RCB2” value was “+”. The “+/− HCB1” value in assay [1] is reported as “+”.
Turning to `COC(=O)N1CCn2c(-c3ccccc3)nc(C(=O)NC3C4(C)CCC(C4)C3(C)C)c2C1` (stereo not drawn) [Compound 178, methyl 3-phenyl-1-(1,3,3-trimethylbicyclo[2.2.1]heptan-2-ylcarbamoyl)-5,6-dihydroimidazo[1,5-a]pyrazine-7(8H)-carboxylate], the “+/− RCB2” value on rat CB2 receptor (rCB2) is “−”. In assay [1], this compound registered a 50% effective concentration (EC50) of more than 10000 nM.
On to `CN1CCn2c(-c3ccc(Cl)cc3F)nc(C(=O)N3CCC(C(=O)N4CCOCC4)CC3)c2C1` [Compound 226, (3-(4-chloro-2-fluorophenyl)-7-methyl-5,6,7,8-tetrahydroimidazo[1,5-a]pyrazin-1-yl)(4-(morpholine-4-carbonyl)piperidin-1-yl)methanone], for which the EC50 (on rat CB2 receptor (rCB2); in assay [1]) was more than 10000 nM throughout.

These data come from patent publication US7517874B2 (priority 2007, dated 2009).
